The values that follow come from ChEMBL document CHEMBL4043187, “Synthesis and biological evaluation of N9-cis-cyclobutylpurine derivatives for use as cyclin-dependent kinase (CDK) inhibitors” (Bioorg Med Chem Lett, 2017).

Assay [1] has as its target CDK2/Cyclin A2 (Homo sapiens) (UniProt P24941+P20248). Briefly: Inhibition of CDK2/CyclinA (unknown origin) using ULingt-4E-BP as substrate at 25 nM after 1 hr in presence of ATP by fluorescence assay relative to control. The class given is protein-complex assay.
Assay [2] concerns the target Cyclin-dependent kinase 5/CDK5 activator 1 (Homo sapiens) (UniProt Q00535+Q15078). The assay can be described thus: Inhibition of CDK5/p35 (unknown origin) using ULingt-4E-BP as substrate at 25 nM after 1 hr in presence of ATP by fluorescence assay relative to control. The assay is classed as protein-complex assay.

SMILES strings stand for the structures. Bounds are passed on as bounds.

Chain of Cyclin-dependent kinase 5/CDK5 activator 1 (Homo sapiens) (Q00535 whole entry): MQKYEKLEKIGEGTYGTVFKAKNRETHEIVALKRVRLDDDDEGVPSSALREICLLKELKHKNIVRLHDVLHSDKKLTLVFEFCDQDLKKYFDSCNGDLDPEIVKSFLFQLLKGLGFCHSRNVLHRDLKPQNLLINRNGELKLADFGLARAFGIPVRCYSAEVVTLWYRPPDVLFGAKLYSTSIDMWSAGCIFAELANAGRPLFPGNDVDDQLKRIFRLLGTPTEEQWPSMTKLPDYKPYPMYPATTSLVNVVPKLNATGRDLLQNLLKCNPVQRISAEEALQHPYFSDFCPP
Chain of Cyclin-dependent kinase 5/CDK5 activator 1 (Homo sapiens) (Q15078 99-307 partner limits assumed): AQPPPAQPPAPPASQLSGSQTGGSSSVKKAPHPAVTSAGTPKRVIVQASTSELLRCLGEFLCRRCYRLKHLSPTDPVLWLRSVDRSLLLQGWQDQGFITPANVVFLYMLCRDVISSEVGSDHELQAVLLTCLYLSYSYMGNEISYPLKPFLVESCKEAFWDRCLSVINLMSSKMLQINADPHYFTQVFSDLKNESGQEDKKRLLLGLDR

The term inhibition denotes the drop in the measured response relative to a control, in per cent. As for `Cc1cccc(C(=O)N[C@H]2C[C@@H](n3cnc4c(Nc5cccc(F)c5)ncnc43)C2)n1`, the inhibition in assay [1] and in assay [2] was less than 50% each time.

For the molecule `Cc1cccc(C(=O)N[C@H]2C[C@@H](n3cnc4c(NCc5ccc(Oc6ccccc6)cc5)ncnc43)C2)n1`, the inhibition in assay [1] and in assay [2] was less than 50% each time.

Regarding `O=C(N[C@H]1C[C@@H](n2cnc3c(NCc4cccnc4)ncnc32)C1)c1c(Cl)cccc1Cl`, the inhibition was 82% in assay [1] and 64% in assay [2].

For `Cc1cccc(C(=O)N[C@H]2C[C@@H](n3cnc4c(NCc5cccc(C(F)(F)F)c5)ncnc43)C2)n1`, the inhibition in assay [1] was less than 50%; in assay [2] it was 72%.

Turning to `CS(=O)(=O)N1CCC(C(=O)N[C@H]2C[C@@H](n3cnc4c(NCc5cccnc5)ncnc43)C2)CC1`, the inhibition in assay [1] was 62%; in assay [2], 48%.

Turning to `Cc1cccc(C(=O)N[C@H]2C[C@@H](n3cnc4c(NCc5ccccn5)ncnc43)C2)n1`, the values for the inhibition in assay [1] and in assay [2] were 49% and 54%, respectively.

On to `Cc1ccc(C(=O)N[C@H]2C[C@@H](n3cnc4c(NCc5cccnc5)ncnc43)C2)cc1C`, for which the inhibition in assay [1] and in assay [2] was less than 50% throughout.

With `COc1ccc(Nc2ncnc3c2ncn3[C@H]2C[C@@H](NC(=O)c3cccc(C)n3)C2)cc1`, the figures for the inhibition in assay [1] and in assay [2] were less than 50% and 63%, respectively.

Consider `O=C(N[C@H]1C[C@@H](n2cnc3c(NCc4cccnc4)ncnc32)C1)c1ccccc1`, for which the inhibition in assay [1] and in assay [2] was less than 50% throughout.

As to `Cc1cccc(C(=O)N[C@H]2C[C@@H](n3cnc4c(NCc5ccccc5C)ncnc43)C2)n1`, the inhibition in assay [1] and in assay [2] was less than 50% in each case.

As for `CN1CCCC1C(=O)N[C@H]1C[C@@H](n2cnc3c(NCc4cccnc4)ncnc32)C1` (stereo partly specified), the inhibition in assay [1] and in assay [2] was less than 50% throughout.

Consider `Cc1cccc(C(=O)N[C@H]2C[C@@H](n3cnc4c(NCc5ccc(OC(F)(F)F)cc5)ncnc43)C2)n1`, for which the values for the inhibition in assay [1] and in assay [2] were less than 50% and 54%, respectively.

`COc1ccc(C(=O)N[C@H]2C[C@@H](n3cnc4c(NCc5cccnc5)ncnc43)C2)cc1`: the inhibition in assay [1] and in assay [2] was less than 50% each time.

Consider `COc1cc(Cl)ccc1C(=O)N[C@H]1C[C@@H](n2cnc3c(NCc4cccnc4)ncnc32)C1`, for which the inhibition in assay [1] and in assay [2] was less than 50% each time.

For `O=C(N[C@H]1C[C@@H](n2cnc3c(NCc4cccnc4)ncnc32)C1)c1cnccn1`, the inhibition in assay [1] and in assay [2] was less than 50% each time.

Regarding `O=C(N[C@H]1C[C@@H](n2cnc3c(NCc4cccnc4)ncnc32)C1)C1CCOCC1`, the inhibition in assay [1] and in assay [2] was less than 50% each time.

For the molecule `Cc1cccc(C(=O)N[C@H]2C[C@@H](n3cnc4c(NCc5ccc(C(F)(F)F)cc5)ncnc43)C2)n1`, the inhibition in assay [1] was less than 50%; in assay [2], 58%.

In the case of `Cc1cccc(C(=O)N[C@H]2C[C@@H](n3cnc4c(NCc5ccccc5Cl)ncnc43)C2)n1`, the inhibition in assay [1] is less than 50%; in assay [2], 59%.

Consider `Cc1cccc(C(=O)N[C@H]2C[C@@H](n3cnc4c(NCc5ccc(C#N)cc5)ncnc43)C2)n1`, for which the inhibition in assay [1] and in assay [2] was less than 50% each time.

On to `COc1ccc(CNc2ncnc3c2ncn3[C@H]2C[C@@H](NC(=O)c3cccc(C)n3)C2)cc1`, for which the figures for the inhibition in assay [1] and in assay [2] were 57% and 81%, respectively.

As to `O=C(CC1CCCCC1)N[C@H]1C[C@@H](n2cnc3c(NCc4cccnc4)ncnc32)C1`, the inhibition in assay [1] and in assay [2] was less than 50% each time.

Regarding `O=C(N[C@H]1C[C@@H](n2cnc3c(NCc4cccnc4)ncnc32)C1)c1ccncc1`, the inhibition in assay [1] and in assay [2] was less than 50% throughout.

`COc1ccccc1CNc1ncnc2c1ncn2[C@H]1C[C@@H](NC(=O)c2cccc(C)n2)C1`: the inhibition in assay [1] and in assay [2] was less than 50% each time.
